From US20080207578A1, “METHOD OF INDUCING APOPTOSIS IN CANCER TREATMENT BY USING CUCURBITACINS” (priority 2006, published 2008)

Experiments:
[1] = system: 59 human cancer cell lines; assay: Sulforhodamine B (SRB) growth inhibition assay, 59-NCI Cancer Cell Line Panel; assay type: cell-based; conditions: 0.488 to 4000 nM, 48 hours
From the text: (§1) Human cancer cell lines from the 59-NCl Cancer Cell Line Panel including leukemia, melanoma and cancers of breast, brain, colon, lung, ovary, prostate and kidney, were purchased from the National Institute of Cancer (USA). The growth inhibition (GI50) of these cell lines treated with cucurbitacin B and cucurbitacin D in various concentrations was investigated.
(§2) 59 human cancer cell lines were maintained in RPMI 1640 (Invitrogen Life Technologies, Calif., USA) supplemented with 5% Fetal Bovine Serum, 2 mM L-glutamine and 1% Penicillin/Streptomycin (Invitrogen Life Technologies) at 37° C. with 5% CO2. All chemicals were purchased from Sigma (St. Louis, Mo., USA) unless specified otherwise.
(§3) Sulforhodamine B (SRB) assay was applied to determine the cytostatic effect of cucurbitacin B and cucurbitacin D. SRB is a dye which binds to cellular proteins and will be dissolved in base. The biomass of total protein can be measured at 520 nm using a plate reader.
(§4) Cells were inoculated into 96-well microtiter plates including “Time zero” (Tz) plates in 100 μl at cell concentrations from 5000 to 40,000 cells per well according to NCI guideline. The cells were incubated at 37° C. with 5% CO2 for 24 hours. […] Bound SRB was solubilized with 100-200 ul per well of 10 mM trizma base and absorbance was measured at a wavelength of 520 nm. The percentage of growth inhibition was calculated as follows: […]

[2] = system: prostate cancer cell lines; assay: SRB growth inhibition assay, prostate cancer group; assay type: cell-based, human; conditions: most sensitive type to cucurbitacin B, 48 hours
From the text: as §1, §2, §3, §4

[3] = system: human cancer cell lines (18 selected from the 59-NCI panel); assay: Cell cycle analysis by PI flow cytometry, 18 selected cell lines; assay type: cell-based; conditions: GI50, 1/2 GI50 and 1/4 GI50 of particular cell line, 48 hours
[4] = system: HL60 (TB) leukemia cell line; assay: Cell cycle analysis by PI flow cytometry, HL60 (TB); assay type: cell-based, human; conditions: 48 hours
[5] = system: human cancer cell lines (18 selected from the 59-NCI panel); assay: Annexin V-FITC/propidium iodine flow cytometric apoptosis assay, 18 selected cell lines; assay type: cell-based; conditions: 48 hours; for cell lines in which apoptosis was induced: GI50, 1/2 GI50 and 1/4 GI50 of particular cell line; for dose dependence of apoptosis induction (in words): three concentrations
Procedure: Human cancer cell lines from the 59-NCI Cancer Cell Line Panel including leukemia, melanoma and cancers of breast, brain, colon, lung, ovary, prostate and kidney were purchased from the National Institute of Cancer. […] They were treated with cucurbitacin B and cucurbitacin D at three different concentrations to elucidate their ability to induce any changes in cell cycle.
Cancer cell lines were maintained in RPMI 1640 supplemented with 5% Fetal Bovine Serum, 2 mM L-glutamine and 1% Penicillin/Streptomycin at 37° C. with 5% CO2. All chemicals were purchased from Sigma unless specified otherwise.
Cells were inoculated into tissue culture flask at cell concentrations from 50000 to 400,000 cells/ml according to the NCl guideline. The cells were incubated at 37° C. with 5% CO2 for 24 hours. Cucurbitacin B and cucurbitacin D were added to the cells of final concentrations ranging from 6 to 350 nM (GI50, ½ GI50 and ¼ GI50 of particular cell line) for 48 hours at 37° C. with 5% CO2. Cells ([…]) were then harvested and stained with 5 μl Annexin V-FITC and 10 μl propidium iodine (Becton Dickinson, Calif., USA) for 15 minutes at room temperature. Ten thousands events were collected by the FACScaliber and the percentage of different cell populations were analyzed by the CellQuest™ software (Becton Dickinson).

[6] = system: PARP in HL 60 human leukemia cells; assay: Western blot of PARP cleavage in HL60 cells; assay type: cell-based
Procedure: (§5) Control cells, as well as cells treated with cucurbitacin B or cucurbitacin D, were harvested and collected by centrifugation. Whole cell extracts were then prepared by lysing the cells using 4% sodium dodecyl sulfate (SDS) gel sample buffer. Cell extracts were boiled for 10 min and chilled on ice, subjected to 12% SDS-polyacrylamide gel electrophoresis, and transferred to a PVDF membrane. Each membrane was cut into to two pieces with one piece incubated at 4^˜ overnight with antibodies against cell cycle signaling proteins, such as ERK, phosphorlated-ERK, p38, phosphorlated-p38, Cyclin E, Retinoblastoma, phosphalated-Retinoblastoma and c-myc, and apoptotic protein (PARP). β-actin was used as a control for protein loading. All antibodies were obtained from Cell signaling Technologies (USA). Then membranes were incubated at 37^˜ for 1 h with secondary antibody conjugated with peroxidase, and the signal was detected using chemiluminescence detection reagent. The relative protein level was calculated as the ratio of the optical density of the protein of interest to that of β-actin.

[7] = system: phosphorylated-ERK, cyclin E, phosphorylated-Rb, c-myc in HL60 cells; assay: Western blot of MAPK / cell cycle signaling proteins in HL60 cells; assay type: cell-based, human
Procedure: as §5

melanoma cell lines = assay: SRB growth inhibition assay, melanoma group; assay type: cell-based, human; conditions: most sensitive type to cucurbitacin D, 48 hours
From the text: as §1, §2, §3, §4

SF-295 CNS cell line = assay: Cell cycle analysis by PI flow cytometry, SF-295; assay type: cell-based, human; conditions: SF-295, 48 hours

CC(=O)OC(C)(C)/C=C/C(=O)[C@](C)(O)[C@H]1[C@H](O)C[C@@]2(C)[C@@H]3CC=C4[C@H](C[C@H](O)C(=O)C4(C)C)[C@]3(C)C(=O)C[C@]12C [cucurbitacin B]
growth inhibition of 59 cancer cell lines (in words) [1]: inhibited the growth of 59 cancer cell lines dose-dependently
GI50 [2]: 17 nM
cell lines arrested in G2/M [3]: 6 out of 18
effect on cell cycle (in words) [4]: G2/M arrest and endoreduplication
cell lines in which apoptosis was induced [5]: 9 out of 18
dose dependence of apoptosis induction (in words) [5]: induced apoptosis in a dose-dependent manner
PARP (apoptosis marker) in western blot (in words) [6]: cleavage of PARP
ERK (in words) [7]: ERK activation
c-myc (in words) [7]: down-regulation of c-myc
cyclin E (in words) [7]: cyclin E down-regulation
retinoblastoma phosphorylation (in words) [7]: inhibition of retinoblastoma's phosphorylation

CC(C)(O)/C=C/C(=O)[C@](C)(O)[C@H]1[C@H](O)C[C@@]2(C)[C@@H]3CC=C4[C@@H](C[C@H](O)C(=O)C4(C)C)[C@]3(C)C(=O)C[C@]12C [cucurbitacin D]
growth inhibition of 59 cancer cell lines (in words) [1]: inhibited the growth of 59 cancer cell lines dose-dependently
GI50 (melanoma cell lines): 60 nM
cell lines arrested in G2/M [3]: 9 out of 18
effect on cell cycle (in words) (SF-295 CNS cell line): G2/M arrest and endoreduplication
cell lines in which apoptosis was induced [5]: 11 out of 18
dose dependence of apoptosis induction (in words) [5]: induced apoptosis in a dose-dependent manner
PARP (apoptosis marker) in western blot (in words) [6]: cleavage of PARP
ERK (in words) [7]: ERK activation
c-myc (in words) [7]: down-regulation of c-myc
cyclin E (in words) [7]: cyclin E down-regulation
retinoblastoma phosphorylation (in words) [7]: inhibition of retinoblastoma's phosphorylation
